Test results as given in patent US20070105721A1, “Vinylogous 4-Hpyrones and their use in promoting plant growth” (priority 2003, published 2007).

Assays:
Type in all cases: in vivo
[1] = test system: Podolepis canescens seeds; assay: Compound 1a as a replacement for light or gibberellic acid; conditions: 1, 10 or 100 ppb compound 1a; similar to gibberellic acid
Description: Three replicates of 50 seeds of Podolepis canescens were placed on Petri dishes containing filter paper moistened with de-ionised water (control), 1, 10 or 100 ppb compound 1a or 1000 ppm gibberellic acid. The Petri dishes were incubated at 12/12 hr alternating temperatures of 7/18° C., 13/26° C. or 18/33° C. and incubated in white light or continuous darkness. All of the treatments were added to the Petri dishes in complete darkness prior to moving to the incubators. Germination was recorded following 7 days incubation.

[2] = test system: Grand Rapids Lettuce seeds (Waltham strain); assay: Grand Rapids bioassay
Description: Grand Rapids Lettuce seeds (Waltham strain) were obtained from R.B. Dessert Seed Co. and were frozen in sachets until use. For testing of aqueous samples, 2.5 mL of test solution was applied to three replicates of 40-50 seeds in Petri dishes (90 mm) lined with two layers of Whatman No. 1 filter paper (7 cm). Millipore filtered water (MP water) was used as a control for each experiment and dilutions of each sample were used to ensure the optimum concentration range for activity. Fractions were reconstituted to their original concentration (before fractionation) and dilutions were made using MP water. Petri dishes were sealed with a layer of plastic wrap, and stored in a light proof container. All manipulations involving the seed were carried out in a dark room and germinants, based on the appearance of a radicle, were scored after 48 hours incubation.

[3] = test system: intact or de-hulled Microlaena stipoides seeds; assay: Compound 1a as a replacement for de-hulling of grass species; conditions: 100 ppb compound 1a
Description: Intact or de-hulled seeds were employed for this experiment. Seeds were de-hulled manually by carefully extracting the seeds from the surrounding palea and lemma. Three replicates of 25 intact or de-hulled seeds were placed on Petri dishes lined with seed germination paper. The Petri dishes were moistened with de-ionised water (control) or 100 ppb compound 1a. All species were incubated in constant darkness at 18° C. Germination (radicle emergence) was recorded every 2-3 days until germination had ceased.

Scaevola thesioides = assay: Soil-based germination trial; conditions: SW 1/10 dilution; compound 1a 10 ppb; in soil; further: tested at 0.01 ppm
Description: (§1) For the soil-based germination trials, four replicates of 25 seeds were soaked in the test solution (water (control) or compound 1 analogues at 10 ppb) for 24 hours, dried in a laminar flow cabinet and sowed in a germination mix. The soil-sown seeds were incubated in the dark at 20±1° C. and were scored on a weekly basis.

Rhodocoma arida = assay: Soil-based germination trial; conditions: SW 1/10 dilution; compound 1a 10 ppb; in soil; 1a statistically significant with p < 0.08; further: tested at 0.01 ppm
Description: as §1

Ozothamnus cordifolium = assay: Soil-based germination trial; conditions: SW 1/10 dilution; compound 1a 10 ppb; in soil; further: tested at 0.01 ppm
Description: as §1

Passerina vulgaris = assay: Soil-based germination trial; conditions: SW 1/10 dilution; compound 1a 10 ppb; in soil; further: tested at 0.01 ppm
Description: as §1

Brunonia australis = assay: Soil-based germination trial; conditions: SW 1/10 dilution; compound 1a 10 ppb; in soil; mean (SEM); further: tested at 0.01 ppm
Description: as §1

Verticordia densiflora = assay: Soil-based germination trial; conditions: SW 1/10 dilution; compound 1a 10 ppb; in soil; further: tested at 0.01 ppm
Description: as §1

Syncarpha vestita = assay: Soil-based germination trial; conditions: SW 1/10 dilution; compound 1a 10 ppb; in soil; further: tested at 0.01 ppm
Description: as §1

Conostylis candicans = assay: Soil-based germination trial; conditions: SW 1/10 dilution; compound 1a 10 ppb; in soil; further: tested at 0.01 ppm
Description: as §1

Grevillea polybotrya = assay: Soil-based germination trial; conditions: SW 1/10 dilution; compound 1a 10 ppb; in soil; further: tested at 0.01 ppm
Description: as §1

Echinacea angustifolia = assay: Stimulation of germination in nutriceutically important plants
Description: (§2) Three replicates of 25 seeds were placed on Petri dishes lined with seed germination paper. The Petri dishes were moistened with de-ionised water (control), 10 or 100 ppb compound 1a. Seeds were incubated in constant darkness at 18° C. Germination (radicle emergence) was recorded every 2-3 days until germination had ceased.

Lawrencella davenportii = assay: Germination on moist filter paper in petri dishes; conditions: SW 1/10 dilution, compound 1a 10 ppb
[4] = test system: Allium ampeloprasum (leek) seeds; assay: Seed vigour enhancement; conditions: 100 ppb compound 1a; further: tested at 0.1 ppm
Description: (§3) For each species, five replicates of 20 seeds were placed on Petri dishes lined with seed germination paper. The Petri dishes were moistened with de-ionised water (control) or 100 ppb compound 1a. All species were incubated in constant darkness at 12/12 hr alternating temperatures of 7/18° C., 13/26° C. or 18/33° C. Germination was scored on radicle emergence and was recorded every 2-3 days until germination had ceased.

[5] = test system: Petroselinium crispum (parsley) seeds; assay: Seed vigour enhancement; conditions: 100 ppb compound 1a; further: tested at 0.1 ppm
Description: as §3

Microlaena stipoides = assay: Germination enhancement of species used in rangeland pasture systems; conditions: 100 ppb compound 1a; constant darkness at 18° C.; mean ± standard error
Description: as §2, with “(control)” for “(control), 10”, “All species” for “Seeds”

Emmenanthe penduliflora = assay: Germination on moist filter paper in petri dishes; conditions: SW 1/10 dilution, compound 1a 10 ppb
[6] = 26/13 ° C. 12/12 hr alternating
[7] = 33/18 ° C. 12/12 hr alternating

Compound: Cc1c2ccocc-2oc1=O [Compound 1a, 3-Methyl-2H-furo[2,3-c]pyran-2-one]
- germination in the dark of light-requiring Podolepis canescens [1]: stimulates germination in the dark
- Grand Rapids germination ([2]; 1/1 000 000 dilution of compound 1a 1 mg/L): 60.9 (2.5) %
- Grand Rapids germination ([2]; 1/10 000 dilution (of neat SW; of compound 1a 1 mg/L)): 96.4 (0.6) %
- Grand Rapids germination ([2]; 1/10 dilution (of neat SW; of compound 1a 1 mg/L)): 98.4 (0.9) %
- Grand Rapids germination ([2]; 1/100 000 dilution of compound 1a 1 mg/L): 76.9 (1.5) %
- Grand Rapids germination ([2]; 1/100 dilution (of neat SW; of compound 1a 1 mg/L)): 98.4 (1.6) %
- level at which compound 1a is active in promoting germination ([2]; 1/100 dilution of the estimated content of neat smoke water (1 mg per 10 000 L)): 10^−10 mol/L
- Grand Rapids germination ([2]; 1/1000 dilution (of neat SW; of compound 1a 1 mg/L)): 97.0 (0.5) %
- Grand Rapids germination ([2]; Neat (neat SW; compound 1a 1 mg/L), mean (SEM)): 99.4 (0.6) %
- inhibition of germination ([2]; at higher concentrations of 1a compared to the amount in smoke water): no inhibition of germination is observed
- Germination, Grand Rapids ([2]; compounds isolated from smoke, mean (SEM)): 99.3 (0.7) %
- Germination (%), Microlaena stipoides ([3]; De-hulled seeds): 100 ± 0.0 a %
- Germination (%), Microlaena stipoides ([3]; Intact seeds): 78.3 ± 6.3 b %
- Germination, Scaevola thesioides (Scaevola thesioides): 17.0 (±5.5) b %
- Germination, Rhodocoma arida (Rhodocoma arida): *53.3 (±3.1) b %
- Germination, Ozothamnus cordifolium (Ozothamnus cordifolium): 24.0 (±4.3) c %
- Germination, Passerina vulgaris (Passerina vulgaris): 10.0 (±4.1) b %
- Germination, Brunonia australis (Brunonia australis): 25.0 (±2.5) b %
- Germination, Verticordia densiflora (Verticordia densiflora): 11.1 (±1.2) b %
- Germination, Syncarpha vestita (Syncarpha vestita): 77.5 (±6.3) b %
- Germination, Conostylis candicans (Conostylis candicans): 36.0 (±6.7) b %
- Germination, Grevillea polybotrya (Grevillea polybotrya): 6.0 (±2.0) c %
- germination of Echinacea angustifolia (Echinacea angustifolia; 10 ppb compound 1a, mean ± standard error): 58.0 ± 5.5 b
- germination of Echinacea angustifolia (Echinacea angustifolia; 100 ppb compound 1a): 74.0 ± 4.0 b
- Germination, Lawrencella davenportii (Lawrencella davenportii): 56.3 (±8.5) b %
- Germination (%), Leek ([4]; 18/7 ° C. 12/12 hr alternating, mean ± standard error): 97.1 ± 0.9 a %
- Germination (%), Leek [4, 6]: 92.0 ± 4.3 a %
- Germination (%), Leek [4, 7]: 72.0 ± 6.3 b %
- Germination (%), Parsley ([5]; 18/7 ° C. 12/12 hr alternating): 27.0 ± 1.9 a %
- Germination (%), Parsley [5, 6]: 70 ± 5.6 b %
- Germination (%), Parsley [5, 7]: 29.0 ± 6.8 b %
- Germination, Microlaena stipoides (Microlaena stipoides): 78.3 ± 6.7 b
- Germination, Emmenanthe penduliflora (Emmenanthe penduliflora): 82.0 (±4.2) b %
